Where two headings read alike, the source gives them in different places.
Experiments:
Stromelysin [1] = target: T1, Stromelysin (Homo sapiens, UniProt P08254); assay: biochemical
Experimental: The latent pro-enzyme (30 µg/ml) was activated by incubation with trypsin (0.5 µg/ml) for 30 minutes at 25°C and then the trypsin was inactivated using a twenty-fold excess of trypsin inhibitor. The inhibitory activity of the hydroxamic acid derivatives was determined using the fluorescent peptide substrate (7-methoxycoumarin-4-yl)acetyl-L-prolyl-L-leucyl-L-alanyl-L-[…]-[3-(2,4-dinitrophenyl)-L-2,3-diaminopropyl]-L-arginyl-L-arginine. The stromelysin (final concentration 35 ng/ml) was added to a solution of substrate ([…]) and varying concentrations of hydroxylamine derivative in 50mM Tris HCl buffer, pH 7.5 containing 200 mM Na Cl, 10mM CaCl2, 0.05% Brij 35 and 5% methanol. This solution was incubated for 16 hours at 37°C. Product formation was determined by spectrofluorometry using an excitation wavelength of 325 nm and an emission wavelength of 395 nm. The IC50 is that concentration of hydroxylamine derivative which reduces the substrate cleavage to 50% of that achieved by the enzyme alone.

gelatinase B = gelatinase B (Homo sapiens, UniProt P14780); assay: biochemical
Experimental: Pro-gelatinase B was purified from human neutrophils by first separating the neutrophils from human blood by density centrifugation and dextran sedimentation. The separated neutrophils were disrupted by combined treatment with 0.05% Triton X-100® and sonification Cell debris was then removed by high speed centrifugation. […] The gelatinase B was incubated overnight at 37°C with 1mM p-aminophenylmercuric acetate. The inhibitory activity of the present hydroxamine derivatives was determined using the synthetic substrate N-acetyl-Pro-Gln-Gly-Leu-Leu-Gly ethyl ester for this enzyme. The gelatinase was added to a solution of 0.25 mM of substrate in 50mM borate buffer (pH 7.5) containing 1 mM calcium chloride and a known concentration of hydroxylamine derivative. The resulting solution was incubated at 37°C for 16 hours. Enzymic activity was terminated by addition of an equal volume of 2% (w/v) sodium hydrogen carbonate solution in 50% aqueous methanol containing 0.05% (w/v) of picrylsulphonic acid. The solution obtained was incubated at 37°C for a further 1 hour and the reaction was then terminated and stabilized by acidification with 1N hydrochloric acid. The concentration of trinitrophenyl-Leu-Leu-Gly ethyl ester formed was determined by spectrophotometry at 335 nm. The IC50 is that concentration of hydroxylamine derivative which reduces substrate cleavage to 50% of that achieved by the enzyme alone.

Stromelysin [2] = target: T1, Stromelysin; assay: Stromelysin (Test A), 14C-acetylated b-casein substrate digestion; assay type: biochemical; conditions: read-out: Test A IC50 (mol)
Experimental: Prostromelysin was purified from human fibroblast culture medium by prostromelysin antibody affinity chromatography [Ganja-Smith Z, Nagase H, Woessner J F Jr., Biochem J. 1989, vol 285 (1), pp 115-119]. The latent pro-enzyme was activated by incubation with trypsin (5 mg/ml) at 25°C for 2 hours and after this time the trypsin was inactivated using a ten-fold excess of soya bean trypsin inhibitor. The inhibitory activity of the aforementioned hydroxamic acid derivatives was determined using ^14C-acetylated b-casein substrate. The stromelysin (5 nM) was added to a solution of substrate (4 mg/ml) in 25 mM Tris HCl buffer, pH 7.5, containing 10 mM CaCl2 and 0.05% Brij®. The solution obtained was incubated at 37°C for 20 hours. Enzyme digestion of the substrate was terminated by the addition of 45% trichloroacetic acid and the precipitated undigested substrate was pelleted by centrifugation at 10000 g for 0.25 hour. The supernatant was aspired and ^14C activity was determined by liquid scintillation spectrometry. The IC50 is that concentration of hydroxamic acid derivative in the enzyme digestion which reduces the substrate cleavage to 50% of that achieved by the enzyme alone.

[3] = gelatinase B from human neutrophils, 0.25 mM substrate, pH 7.5, 37°C, 16 hours, * = IC50 limited by mutual depletion of the enzyme, read-out: Test C IC50 (mol)

T1 sequence (P08254 100-477): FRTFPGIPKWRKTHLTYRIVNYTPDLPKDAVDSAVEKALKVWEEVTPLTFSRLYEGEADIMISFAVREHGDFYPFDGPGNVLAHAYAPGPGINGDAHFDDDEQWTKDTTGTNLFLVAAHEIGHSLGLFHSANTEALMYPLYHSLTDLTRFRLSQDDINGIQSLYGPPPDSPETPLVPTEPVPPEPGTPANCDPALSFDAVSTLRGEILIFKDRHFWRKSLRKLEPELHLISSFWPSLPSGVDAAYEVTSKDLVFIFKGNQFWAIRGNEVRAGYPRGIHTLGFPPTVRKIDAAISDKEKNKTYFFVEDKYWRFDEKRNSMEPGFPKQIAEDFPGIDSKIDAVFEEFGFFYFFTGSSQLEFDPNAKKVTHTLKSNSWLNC
Chain of gelatinase B (P14780 94-707): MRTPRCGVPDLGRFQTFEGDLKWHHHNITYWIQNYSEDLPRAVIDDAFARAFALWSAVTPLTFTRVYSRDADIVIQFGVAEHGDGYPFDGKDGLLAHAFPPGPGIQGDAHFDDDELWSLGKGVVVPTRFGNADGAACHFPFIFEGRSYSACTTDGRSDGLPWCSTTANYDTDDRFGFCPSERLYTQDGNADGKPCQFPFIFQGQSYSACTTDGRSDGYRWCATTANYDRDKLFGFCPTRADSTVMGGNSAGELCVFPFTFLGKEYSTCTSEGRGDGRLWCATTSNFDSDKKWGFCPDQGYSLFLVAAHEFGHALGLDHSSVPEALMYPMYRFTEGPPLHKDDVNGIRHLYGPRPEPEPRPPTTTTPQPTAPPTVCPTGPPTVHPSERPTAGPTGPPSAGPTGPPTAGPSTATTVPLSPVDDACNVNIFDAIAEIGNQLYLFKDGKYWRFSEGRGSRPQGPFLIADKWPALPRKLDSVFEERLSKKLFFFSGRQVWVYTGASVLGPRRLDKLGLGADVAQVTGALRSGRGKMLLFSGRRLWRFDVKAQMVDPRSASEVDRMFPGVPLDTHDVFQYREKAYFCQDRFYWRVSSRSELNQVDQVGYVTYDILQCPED

Row | SMILES | IC50 (Stromelysin [1]) [nM] | IC50 (gelatinase B) [nM] | IC50 (Stromelysin [2]) [nM] | IC50 (Stromelysin [1]; stromelysin 35 ng/ml, fluorescent peptide substrate, pH 7.5, 37°C, 16 hours, * = IC50 limited by mutual depletion of the enzyme, read-out: Test B IC50 (mol)) [nM] | IC50 (gelatinase B; [3]) [nM]
1 | CCCCCCCC(CC(=O)NO)C(=O)N[C@@H](CC(C)C)C(=O)N[C@@H](CC(C)C)C(=O)NCC (single isomer, unassigned) [Compound A, [4-(N-Hydroxyamino)-2(R or S)-heptylsuccinyl]-L-leucyl-L-leucine ethylamide] | 12.5 | 320 | 33 |  | 
2 | CCCCCCCCCC(CC(=O)NO)C(=O)N[C@@H](CC(C)C)C(=O)N[C@@H](CC(C)C)C(=O)NCC (single isomer, unassigned) [Compound B, [4-(N-Hydroxyamino)-2(R or S)-nonylsuccinyl]-L-leucyl-L-leucine ethylamide] | 9.3 | 50 | 26 |  | 
3 | CCCCCCCC(C(=O)N[C@@H](CC(C)C)C(=O)N[C@@H](CC(C)C)C(=O)NCC)[C@H](C)C(=O)NO (single isomer, unassigned) [Compound C, [4-(N-Hydroxyamino)-2(R or S)-heptyl-3(S)-methylsuccinyl]-L-leucyl-L-leucine ethylamide] | 2.3 |  | 11 |  | 
4 | CCCCCCC[C@@H](C(=O)N[C@@H](CC(C)C)C(=O)N[C@@H](CC(C)C)C(=O)NCC)C(CN1C(=O)c2ccccc2C1=O)C(=O)NO (single isomer, unassigned) [Compound D, [4-(N-Hydroxyamino)-2(R)-heptyl-3(R or S)-(phthalimidomethyl)succinyl]-L-leucyl-L-leucine ethylamide] | 0.59 |  | 10 |  | 
5 | CCCCCCC[C@@H](C(=O)N[C@H](C(=O)NC)C(C)(C)C)C(CN1C(=O)c2ccccc2C1=O)C(=O)NO (single isomer, unassigned) [Compound G, [4-(N-Hydroxyamino)-2(R)-heptyl-3(R or S)-(phthalimidomethyl)succinyl]-L-tert-butylglycine methylamide] |  |  |  | 1.2 | 0.9
6 | CCCCCCC[C@@H](C(=O)N[C@@H](CC(C)C)C(=O)N[C@@H](CC(C)C)C(=O)NCC)C(CCCc1ccccc1)C(=O)NO (single isomer, unassigned) [Compound H, [4-(N-Hydroxyamino) 2(R)-heptyl-3(R or S)-(3-phenylpropyl)succinyl]-L-leucyl-L-leucine ethylamide] | 0.66 |  |  |  | 
7 | CCCCCCCC(CC(=O)NO)C(=O)N[C@@H](Cc1ccccc1)C(=O)NC (stereo partly drawn) [Compound F, [4-(N-Hydroxyamino)-2(RS)-heptylsuccinyl]-L-phenylalanine methylamide] | 22 |  |  |  | 3.2
